Laboratory results taken from PMC2648833 (Biochemistry, 2008).

Assays:
Experiment in all cases: […] release, TLC
Assay type in all cases: biochemical
Settings in all cases: labelled compound; 1 mM ATP, 2 mM MgCl2, salmon sperm DNA, Tris-HCl pH 8.0, 37 °C
[1] = molecular target: UvrD2-(1-630) (ΔHRDC) (Mycolicibacterium smegmatis, UniProt A0QTT0)
[2] = molecular target: UvrD2 (MsmUvrD2), full-length (Mycolicibacterium smegmatis, UniProt A0QTT0)
[3] = molecular target: UvrD2 (MsmUvrD2), full-length (Mycolicibacterium smegmatis, UniProt A0QTT0, C614A/C617A)

Nc1ncnc2c1ncn2[C@@H]1O[C@H](COP(=O)(O)OP(=O)(O)OP(=O)(O)O)[C@@H](O)[C@H]1O [ATP]
32Pi release, TLC [1]: The two proteins displayed virtually identical specific activity for ATP hydrolysis
32Pi release, TLC [2]: The two proteins displayed virtually identical specific activity for ATP hydrolysis
32Pi release, TLC [3]: The paired cysteine mutations had no deleterious effect on DNA-dependent ATPase specific activity
